Assay: Ratio of the concentration levels determined for the adrenal medulla to the liver after 72 hr; [Adrenal Medulla] / [liver]
Format: ADME, tissue-based

Ratio	SMILES
115	N=C(N)NCc1ccc(I)c(I)c1
45	N=C(N)Nc1cccc(I)c1
130	N=C(N)NCc1ccccc1I
2700	N=C(N)NCc1ccccc1
5.2	N=C(N)NCc1cc(I)cc(I)c1
190	N=C(N)NCCc1cccc(I)c1
200	N=C(N)NCCc1ccc(I)cc1
545	N=C(N)NCc1ccc(I)cc1
430	CC(N=C(N)N)c1cccc(I)c1 (racemic)
190	CC(N=C(N)N)c1ccc(I)cc1 (racemic)
300	CC(N=C(N)N)c1cccc(I)c1 (single isomer, unassigned; (-))
390	CC(N=C(N)N)c1cccc(I)c1 (stereo in doubt; 8b(+))
70	N=C(N)NCCN1CCCCCCC1 [GUANETHIDINE]
1.4	N=C(N)N [GUANIDINE]
720	N=C(N)NCc1cccc(I)c1 [IOBENGUANE]

Reference: ChEMBL document CHEMBL1122560, “Adrenal medulla imaging agents: a structure-distribution relationship study of radiolabeled aralkylguanidines” (J Med Chem, 1984)
